Reference: patent US20160303095A1, “METHODS OF TREATING HEPATITIS B VIRUS” (Gilead Sciences, Inc., priority 2015, published 2016)
Where two headings read alike, the source gives them in different places.

Test system: HBV
Assay: PHH screening protocol: HBsAg and HBeAg levels by MSD ELISA
Type: cell-based, Hepatitis B Virus
Settings: for EC50: Hepatitis B virus
Experimental: HBV antiviral activity was assessed in primary human hepatocytes (PHH) in a 96-well format. PHH were (Life Technologies, Chicago, 11) plated on collagen coated tissue culture plates using Plating Media containing William's Medium E supplemented with 1% Penicillin/Streptomycin, 4 μg/mL human recombinant insulin, 2 mM glutamax, 15 mM Hepes, 1 μM dexamethasone and 5% fetal bovine serum (Life Technologies, Cat#A12176-01 Life Technologies, Chicago, Ill.). After a 4-hour incubation at 37° C., cells were switched to Maintenance Media (Cat#CM4000-A15564 Life Technologies, Chicago, Ill.) containing William's Medium E supplemented with 0.5% Penicillin/Streptomycin, 6.25 μg/mL human recombinant insulin, 6.25 μg/mL human transferrin, 6.25 ng/mL selenous acid, 1.25 mg/mL bovine serum albumin, 5.35 μg/mL linoleic acid, 2 mM glutamax, 15 mM Hepes, 0.1 μM dexamethasone, 2% fetal bovine serum, and 2% DMSO (Cat#D2650 Sigma, St. Louis, Mo.). On the next day, cells were infected with approximately 500 genome equivalent of selected HBV clinical isolates (21P (GTA), 32P (GTA), 91P (GTA), AD38 (GTD), 65P (GTD) or 30P (GTE); ProteoGenex, Culver City, Calif.) per cell in Maintenance Media supplemented with 4% PEG 8000 (Cat#V3011 Promega, Madison, Wis.). After 24 hour incubation cells were washed three times with William's Medium E and fed with fresh Maintenance Media. Small molecule inhibitors targeting KDMs were serially diluted in Maintenance Media and added to cells at 3 days post infection (p.i.). Media with compounds was replenished every 2-3 days. Media collected on various days was used for determination of HBsAg and HBeAg levels by MSD ELISA, and HBV RNA by qPCR. All data were converted into percentages of the untreated control and non-linear regression was performed to calculate EC50 or CC50 values.

## CCOC(=O)c1ccnc(CNCC(=O)N(CC)CCN(C)C)c1 [Example 8]
336 h, read-out: HBeAg EC50, virus 30P, PHH donor 4239, d 14, compound removed after 14 days of treatment
  EC50: 4310 nM
336 h, read-out: HBeAg EC50, virus 30P, PHH donor 4239, d 17, compound removed after 14 days of treatment
  EC50: 141 nM
336 h, read-out: HBeAg EC50, virus 30P, PHH donor 4239, d 20, compound removed after 14 days of treatment
  EC50: 111 nM
336 h, read-out: HBeAg EC50, virus 30P, PHH donor 4239, d 25, compound removed after 14 days of treatment
  EC50: 15 nM
336 h, read-out: HBeAg EC50, virus 30P, PHH donor 4239, d 31, compound removed after 14 days of treatment
  EC50: 36 nM
336 h, read-out: HBeAg EC50, virus 30P, PHH donor 8130, d 14, compound removed after 14 days of treatment
  EC50: 318 nM
336 h, read-out: HBeAg EC50, virus 30P, PHH donor 8130, d 17, compound removed after 14 days of treatment
  EC50: 24 nM
336 h, read-out: HBeAg EC50, virus 30P, PHH donor 8130, d 20, compound removed after 14 days of treatment
  EC50: 20 nM
336 h, read-out: HBeAg EC50, virus 30P, PHH donor 8130, d 25, compound removed after 14 days of treatment
  EC50: 2 nM
336 h, read-out: HBeAg EC50, virus 30P, PHH donor 8130, d 31, compound removed after 14 days of treatment
  EC50: 2 nM
336 h, read-out: HBeAg EC50, virus AD38, PHH donor 4239, d 14, compound removed after 14 days of treatment
  EC50: > 15000 nM
336 h, read-out: HBeAg EC50, virus AD38, PHH donor 4239, d 17, compound removed after 14 days of treatment
  EC50: 1660 nM
336 h, read-out: HBeAg EC50, virus AD38, PHH donor 4239, d 20, compound removed after 14 days of treatment
  EC50: 670 nM
336 h, read-out: HBeAg EC50, virus AD38, PHH donor 4239, d 25, compound removed after 14 days of treatment
  EC50: 110 nM
336 h, read-out: HBeAg EC50, virus AD38, PHH donor 4239, d 31, compound removed after 14 days of treatment
  EC50: 200 nM
336 h, read-out: HBeAg EC50, virus AD38, PHH donor 8130, d 14, compound removed after 14 days of treatment
  EC50: 2420 nM
336 h, read-out: HBeAg EC50, virus AD38, PHH donor 8130, d 17, compound removed after 14 days of treatment
  EC50: 840 nM
336 h, read-out: HBeAg EC50, virus AD38, PHH donor 8130, d 20, compound removed after 14 days of treatment
  EC50: 190 nM
336 h, read-out: HBeAg EC50, virus AD38, PHH donor 8130, d 25, compound removed after 14 days of treatment
  EC50: 30 nM
336 h, read-out: HBeAg EC50, virus AD38, PHH donor 8130, d 31, compound removed after 14 days of treatment
  EC50: 10 nM
336 h, read-out: HBsAg EC50, virus 30P, PHH donor 4239, d 14, compound removed after 14 days of treatment
  EC50: > 15000 nM
336 h, read-out: HBsAg EC50, virus 30P, PHH donor 4239, d 17, compound removed after 14 days of treatment
  EC50: 207 nM
336 h, read-out: HBsAg EC50, virus 30P, PHH donor 4239, d 20, compound removed after 14 days of treatment
  EC50: 26 nM
336 h, read-out: HBsAg EC50, virus 30P, PHH donor 4239, d 25, compound removed after 14 days of treatment
  EC50: 28 nM
336 h, read-out: HBsAg EC50, virus 30P, PHH donor 4239, d 31, compound removed after 14 days of treatment
  EC50: 32 nM
336 h, read-out: HBsAg EC50, virus 30P, PHH donor 8130, d 14, compound removed after 14 days of treatment
  EC50: 1 nM
336 h, read-out: HBsAg EC50, virus 30P, PHH donor 8130, d 17, compound removed after 14 days of treatment
  EC50: 19 nM
336 h, read-out: HBsAg EC50, virus 30P, PHH donor 8130, d 20, compound removed after 14 days of treatment
  EC50: 3 nM
336 h, read-out: HBsAg EC50, virus 30P, PHH donor 8130, d 25, compound removed after 14 days of treatment
  EC50: 2 nM
336 h, read-out: HBsAg EC50, virus 30P, PHH donor 8130, d 31, compound removed after 14 days of treatment
  EC50: 2 nM
336 h, read-out: HBsAg EC50, virus AD38, PHH donor 4239, d 14, compound removed after 14 days of treatment
  EC50: 6300 nM
336 h, read-out: HBsAg EC50, virus AD38, PHH donor 4239, d 17, compound removed after 14 days of treatment
  EC50: 842 nM
336 h, read-out: HBsAg EC50, virus AD38, PHH donor 4239, d 20, compound removed after 14 days of treatment
  EC50: 300 nM
336 h, read-out: HBsAg EC50, virus AD38, PHH donor 4239, d 25, compound removed after 14 days of treatment
  EC50: 372 nM
336 h, read-out: HBsAg EC50, virus AD38, PHH donor 4239, d 31, compound removed after 14 days of treatment
  EC50: 152 nM
336 h, read-out: HBsAg EC50, virus AD38, PHH donor 8130, d 14, compound removed after 14 days of treatment
  EC50: 2010 nM
336 h, read-out: HBsAg EC50, virus AD38, PHH donor 8130, d 17, compound removed after 14 days of treatment
  EC50: 920 nM
336 h, read-out: HBsAg EC50, virus AD38, PHH donor 8130, d 20, compound removed after 14 days of treatment
  EC50: 81 nM
336 h, read-out: HBsAg EC50, virus AD38, PHH donor 8130, d 25, compound removed after 14 days of treatment
  EC50: 80 nM
336 h, read-out: HBsAg EC50, virus AD38, PHH donor 8130, d 31, compound removed after 14 days of treatment
  EC50: 12 nM
408 h, read-out: HBsAg EC50, virus 21P (GTA), PHH 4239, day 17 p.i.
  EC50: 700 nM
408 h, read-out: HBsAg EC50, virus 21P (GTA), PHH 8130, day 17 p.i.
  EC50: 200 nM
408 h, read-out: HBsAg EC50, virus 21P (GTA), PHH 8181, day 17 p.i.
  EC50: 20 nM
408 h, read-out: HBsAg EC50, virus 30P (GTE), PHH 4239, day 17 p.i.
  EC50: 300 nM
408 h, read-out: HBsAg EC50, virus 30P (GTE), PHH 8130, day 17 p.i.
  EC50: 200 nM
408 h, read-out: HBsAg EC50, virus 30P (GTE), PHH 8181, day 17 p.i.
  EC50: < 5 nM
408 h, read-out: HBsAg EC50, virus 32P (GTA), PHH 4239, day 17 p.i.
  EC50: 30 nM
408 h, read-out: HBsAg EC50, virus 32P (GTA), PHH 8130, day 17 p.i.
  EC50: 80 nM
408 h, read-out: HBsAg EC50, virus 32P (GTA), PHH 8181, day 17 p.i.
  EC50: < 2 nM
408 h, read-out: HBsAg EC50, virus 65P (GTD), PHH 4239, day 17 p.i.
  EC50: 300 nM
408 h, read-out: HBsAg EC50, virus 65P (GTD), PHH 8130, day 17 p.i.
  EC50: 2400 nM
408 h, read-out: HBsAg EC50, virus 65P (GTD), PHH 8181, day 17 p.i.
  EC50: < 2 nM
408 h, read-out: HBsAg EC50, virus 91P (GTA), PHH 4239, day 17 p.i.
  EC50: 60 nM
408 h, read-out: HBsAg EC50, virus 91P (GTA), PHH 8130, day 17 p.i.
  EC50: 30 nM
408 h, read-out: HBsAg EC50, virus 91P (GTA), PHH 8181, day 17 p.i.
  EC50: < 6 nM
408 h, read-out: HBsAg EC50, virus AD38 (GTD), PHH 4239, day 17 p.i.
  EC50: 2000 nM
408 h, read-out: HBsAg EC50, virus AD38 (GTD), PHH 8130, day 17 p.i.
  EC50: 1400 nM
408 h, read-out: HBsAg EC50, virus AD38 (GTD), PHH 8181, day 17 p.i.
  EC50: < 5 nM
read-out: EC50 values (HBsAg), PHH donors 4239 and 8130, across patient viruses
  EC50: 30 to 2400 nM
read-out: HBeAg EC50, D 8, PHH donor 8181, virus 21p
  EC50: > 50000 nM
read-out: HBeAg EC50, D 13, PHH donor 8181, virus 21p
  EC50: 160 nM
read-out: HBeAg EC50, D 17, PHH donor 8181, virus 21p
  EC50: < 20 nM
read-out: HBeAg EC50, D 22, PHH donor 8181, virus 21p
  EC50: < 20 nM
read-out: HBeAg EC50, D 27, PHH donor 8181, virus 21p
  EC50: < 20 nM
read-out: HBeAg EC50, D 31, PHH donor 8181, virus 21p
  EC50: < 20 nM
read-out: HBeAg EC50, HBV-infected PHH
  EC50: 188 nM
read-out: HBsAg EC50, D 8, PHH donor 8181, virus 21p
  EC50: > 50000 nM
read-out: HBsAg EC50, D 13, PHH donor 8181, virus 21p
  EC50: 150 nM
read-out: HBsAg EC50, D 17, PHH donor 8181, virus 21p
  EC50: < 20 nM
read-out: HBsAg EC50, D 22, PHH donor 8181, virus 21p
  EC50: < 20 nM
read-out: HBsAg EC50, D 27, PHH donor 8181, virus 21p
  EC50: < 20 nM
read-out: HBsAg EC50, D 31, PHH donor 8181, virus 21p
  EC50: < 20 nM
read-out: HBsAg EC50, HBV-infected PHH
  EC50: 67 nM
PHH donor 8181
  inhibition of HBV HBsAg and HBeAg secretion compared to untreated cells: more than 10 fold
PHH donor 8181 infected with patient virus 21p (GTA)
  time dependency of anti HBV activity: time dependent
